{"source": "patent US20110071198A1", "about": "(priority 2008, published 2011)", "key": {"[1]": {"conditions": "literature; cited from earlier work"}, "peritoneal macrophages": {"system": "peritoneal macrophages", "conditions": "200 μM, 10 minutes", "method": "FIGS. 8A-8E. […] Data are mean±SEM for change in perfusion as a function of time. […] (FIG. 8D) Maximum response to PGD2, plotted as mean±SEM (n=15−25 per condition). […] Thioglycollate-elicited peritoneal macrophages were loaded with H3-arachidonic acid (H3-AA) for 24 hours, and then rinsed to remove arachidonic acid not incorporated into cell membrane lipids. […] Animal use and protocols. All animal studies were reviewed and approved by the Duke University Internal Animal Care and Use Committee. […] Age- and weight-matched male mice over 12 weeks of age were used in all experiments. […] The animals were euthanized 30 minutes later. Serum was collected and stored at −80° C. […] After 10 minutes, the mice were placed under an LDPI laser Doppler (PeriScan PIM II; Perimed). The right ear was everted to expose the anterior/ventral surface. The laser Doppler was focused on the central portion of the ventral ear. Data were collected using the repeated data collection mode with a 5-mm×5-mm image size, a 10-second delay, and high-resolution scan. […] Readings were continually recorded for 30 minutes. As a control, each animal was subsequently treated with 4 mg/kg PGD2 dissolved in PBS."}, "Langerhans cells": {"system": "Langerhans cells", "conditions": "10 μM for 10 minutes", "procedure": "Data are mean±SEM of 3 independent experiments.\nThe plates were transferred on ice, and cells were washed twice with ice-cold PBS and then scraped in PBS containing complete protease inhibitor cocktail (Roche Applied Sciences). Cells were lysed by brief sonication and then centrifuged at 3,000 g for 5 minutes to remove unbroken cells and nuclear fractions. Subsequently, the supernatant was centrifuged at 21,000 g for 30 minutes to separate the membrane fraction (in the pellet) and cytosolic fraction (in the supernatant). The membrane pellet was resuspended in PBS, proteins in the membrane and the cytosolic fractions were measured by Bradford assay, and β-arrestins were detected by Western blot analysis."}, "[2]": {"design": "species or system mice", "conditions": "mouse, in vivo", "method": "FIG. 10. […]. Perfusion of the ventral ear in age and weight matched wild-type C57B1/6 mice was measured with laser doppler. […] The first dose was 25 mg/kg, the second dose was 50 mg/kg and the third dose was 100 mg/kg. Wild-type (rechallenge) mice received all three doses of nicotinic acid and wild-type (control) mice received the first dose of nicotinic acid followed by two subsequent doses with vehicle alone. Plotted values represent the mean change in perfusion as a function of time from 8 animals."}, "[3]": {"conditions": "nicotinic acid therapy; cited from earlier work"}, "[4]": {"conditions": "i.p. 10, 50 or 100 mg/kg; wild-type C57BL/6, β-arrestin1-deficient and β-arrestin2-deficient mice", "method": "FIG. 7. […] Animal use and protocols. All animal studies were reviewed and approved by the Duke University Internal Animal Care and Use Committee. […] Age- and weight-matched male mice over 12 weeks of age were used in all experiments. […] The animals were euthanized 30 minutes later. Serum was collected and stored at −80° C. […] After 10 minutes, the mice were placed under an LDPI laser Doppler (PeriScan PIM II; Perimed). The right ear was everted to expose the anterior/ventral surface. The laser Doppler was focused on the central portion of the ventral ear. Data were collected using the repeated data collection mode with a 5-mm×5-mm image size, a 10-second delay, and high-resolution scan. […] Readings were continually recorded for 30 minutes. As a control, each animal was subsequently treated with 4 mg/kg PGD2 dissolved in PBS."}, "[5]": {"assay": "Mouse cutaneous flushing assay (laser Doppler perfusion of ventral ear)", "format": "in vivo, mice", "conditions": "i.p. 100 mg/kg", "method": "FIGS. 8A-8E. […] Animal use and protocols. […] The animals were euthanized 30 minutes later. Serum was collected and stored at −80° C. […] Readings were continually recorded for 30 minutes."}, "[6]": {"system": "differentiated THP-1 macrophages", "conditions": "200 μM for 10 minutes; data not shown"}, "cPLA2": {"system": "cPLA2", "format": "cell-based", "conditions": "pretreatment of cells", "procedure": "Agonist-stimulated activation of cPLA2 in the presence of control siRNA, β-arrestin1 siRNA, or control siRNA plus either pertussis toxin or PD98059 (PD). […] (FIG. 6D) Activation or phosphorylation of cPLA2 in siRNA-treated cells. **P=0.0085 versus respective 10-minute value; ***P=0.0047 versus respective 0-minute value. Data are mean±SEM of 3 independent experiments.\nImmunoblotting and immunoprecipitation. […] For immunoprecipitation, cells were treated with serum-free media with and without nicotinic acid. Cells were washed once with PBS at 4° C., harvested by gentle scraping, pelleted, and resuspended in glycerol lysis buffer including protease and phosphatase inhibitors. […] Immunoprecipitation reactions were incubated at 4° C. for 3 hours, washed 3 times with glycerol lysis buffer, and resuspended in SDS running buffer. Samples were subjected to SDS-PAGE analysis and Western blotting with cPLA2 antibody (diluted 1:1,000; Cell Signaling Technology), phosphorylated cPLA2 antibody (diluted 1:1,000; Cell Signaling Technology), M2 antibody (diluted 1:2,000; Sigma-Aldrich), and β-arrestin antibody (diluted 1:1,000; BD Biosciences)."}, "GPR109A [7]": {"target": "T1, GPR109A (Homo sapiens, UniProt Q8TDS4)", "T1 construct": "expressed in transfected cells; plus Zeocin with ICUE2", "T1 sequence (Q8TDS4 whole entry, species assumed)": "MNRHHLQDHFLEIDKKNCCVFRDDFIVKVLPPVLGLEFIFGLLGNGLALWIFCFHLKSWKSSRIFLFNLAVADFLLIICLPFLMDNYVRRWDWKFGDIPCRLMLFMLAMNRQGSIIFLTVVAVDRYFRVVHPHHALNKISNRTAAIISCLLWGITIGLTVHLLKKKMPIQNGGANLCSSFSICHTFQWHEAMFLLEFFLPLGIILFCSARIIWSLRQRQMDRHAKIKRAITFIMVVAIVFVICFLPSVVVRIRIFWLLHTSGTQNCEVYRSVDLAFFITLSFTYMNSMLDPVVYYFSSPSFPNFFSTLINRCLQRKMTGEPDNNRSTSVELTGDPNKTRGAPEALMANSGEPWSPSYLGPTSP", "assay": "Phosphorylated ERK immunoblotting in HEK-293 cells", "format": "cell-based", "conditions": "GPR109A-expressing cells", "procedure": "Total ERK1/2 was detected with anti-MAPK1/2 (diluted 1:3,000; Upstate Biotechnology). […] Anti-rabbit and anti-mouse secondary antibodies for Western blots were obtained from Amersham Biosciences. For immunoprecipitation, cells were treated with serum-free media with and without nicotinic acid. Cells were washed once with PBS at 4° C., harvested by gentle scraping, pelleted, and resuspended in glycerol lysis buffer including protease and phosphatase inhibitors. […] Immunoprecipitation reactions were incubated at 4° C. for 3 hours, washed 3 times with glycerol lysis buffer, and resuspended in SDS running buffer. Samples were subjected to SDS-PAGE analysis and Western blotting with cPLA2 antibody (diluted 1:1,000; Cell Signaling Technology), phosphorylated cPLA2 antibody (diluted 1:1,000; Cell Signaling Technology), M2 antibody (diluted 1:2,000; Sigma-Aldrich), and β-arrestin antibody (diluted 1:1,000; BD Biosciences)."}, "GPR109A [8]": {"target": "T1, GPR109A", "assay": "ICUE cAMP assay in HEK-293 cells expressing FLAG-GPR109A and ICUE2 biosensor", "format": "cell-based", "method": "ICUE cAMP assay. […] Experiments were performed on a NOVOstar plate reader (BMG Labtech)."}}, "note": "Where two headings read alike, the source gives them in different places."}
{"molecule": "C1Cc2[nH]nc(-c3nn[nH]n3)c2C1", "note": "[MK-0354]", "values": [{"measurement": "cutaneous flushing", "setting": "[1]", "result": "do not induce cutaneous flushing"}, {"measurement": "serum FFAs", "setting": "[1]", "result": "decrease serum FFAs"}]}
{"molecule": "O=C(O)c1cccnc1", "note": "[nicotinic acid, Nicotinic acid]", "values": [{"measurement": "release of radiolabeled eicosanoids in β-arrestin1-deficient cells", "setting": "peritoneal macrophages; versus wild type", "result": "significantly reduced"}, {"measurement": "release of radiolabeled eicosanoids", "setting": "peritoneal macrophages; wild-type and β-arrestin2-deficient macrophages", "result": "increased"}, {"measurement": "recruitment of β-arrestin1 to the membrane of Langerhans cells", "setting": "Langerhans cells", "result": "robust recruitment"}, {"measurement": "tachyphylaxis to cutaneous vasodilation/flushing", "setting": "[2]", "result": "rapid tachyphylaxis"}, {"measurement": "occurrence of cutaneous vasodilation or flushing side effect", "setting": "[3]", "result": "~80 % of patients"}, {"measurement": "serum FFAs", "setting": "[4]", "result": "significant and essentially identical decreases in FFAs"}, {"measurement": "nicotinic acid-stimulated increase in perfusion in β-arrestin1-deficient mice", "setting": "[5]; versus wild type", "result": "dramatically decreased"}, {"measurement": "perfusion of the ventral ear", "setting": "[5]; wild-type and β-arrestin2-deficient mice", "result": "dramatic increase in perfusion"}, {"measurement": "β-arrestin1 translocation in differentiated THP-1 macrophages", "setting": "[6]", "result": "led to β-arrestin1 translocation"}]}
{"molecule": "COc1cccc(-c2cc(=O)c3ccccc3o2)c1N", "note": "[PD98059]", "values": [{"measurement": "basal level of phosphorylated cPLA2 after pretreatment", "setting": "cPLA2", "result": "substantially increased"}]}
{"molecule": "pertussis toxin", "values": [{"measurement": "effect on nicotinic acid-stimulated ERK phosphorylation", "setting": "GPR109A [7]", "result": "all but eliminated"}, {"measurement": "basal level of phosphorylated cPLA2 after pretreatment", "setting": "cPLA2", "result": "substantially increased"}, {"measurement": "MK-0354-induced cAMP decrease, sensitivity to pertussis toxin", "setting": "GPR109A [8]; agonist MK-0354", "result": "sensitive"}, {"measurement": "nicotinic acid-induced cAMP decrease, sensitivity to pertussis toxin", "setting": "GPR109A [8]; agonist nicotinic acid", "result": "sensitive"}]}
